Consider three compounds from patent EP1068805A1, “Dietetic foods and pharmaceutical preparations inhibiting blood coagulation” (CPC INTERNATIONAL INC., priority 1996, dated 1997).

For assay [1], the target named is T1, Υ-glutamylcarboxylase (Rattus norvegicus, UniProt O88496).
T1 sequence (O88496 1-758): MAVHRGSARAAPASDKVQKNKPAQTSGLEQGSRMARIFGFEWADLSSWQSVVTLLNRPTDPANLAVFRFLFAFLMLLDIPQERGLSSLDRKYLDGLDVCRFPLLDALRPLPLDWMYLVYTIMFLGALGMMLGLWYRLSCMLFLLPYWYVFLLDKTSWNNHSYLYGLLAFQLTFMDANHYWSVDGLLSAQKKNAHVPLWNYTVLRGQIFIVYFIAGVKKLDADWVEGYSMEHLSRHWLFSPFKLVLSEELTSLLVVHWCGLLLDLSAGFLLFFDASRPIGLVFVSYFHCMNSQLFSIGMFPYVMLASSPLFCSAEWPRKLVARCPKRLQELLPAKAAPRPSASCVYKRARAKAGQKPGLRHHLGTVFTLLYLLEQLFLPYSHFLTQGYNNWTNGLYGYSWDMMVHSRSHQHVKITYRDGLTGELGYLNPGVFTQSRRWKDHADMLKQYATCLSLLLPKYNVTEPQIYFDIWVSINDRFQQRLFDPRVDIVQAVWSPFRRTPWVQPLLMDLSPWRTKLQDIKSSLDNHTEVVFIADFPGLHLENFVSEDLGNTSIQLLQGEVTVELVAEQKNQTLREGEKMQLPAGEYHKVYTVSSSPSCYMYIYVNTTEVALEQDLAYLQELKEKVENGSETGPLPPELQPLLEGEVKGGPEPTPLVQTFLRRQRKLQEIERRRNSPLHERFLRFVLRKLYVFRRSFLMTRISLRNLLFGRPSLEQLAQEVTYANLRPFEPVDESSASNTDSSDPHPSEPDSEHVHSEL
The assay can be described thus: Inhibition of carboxylase activity in salt-washed liver microsomes, rat system. Type of assay: biochemical, rats of the Lewis strain. Particulars: cofactor KH2; mean of triplicate experiments with S.E.M.; read-out: I-50 (µM) in rat system. An excerpt:
(§1) Prenylquinones like phylloquinone (vitamin K1), ubiquinone and plastoquinone function as co-enzymes during the conversion of glutamate into γ-carboxyl-glutamate (Gla), which is an essential step in the formation of the blood coagulation factors. The active form of vitamin K is the quinol (KH2), the oxidation of which provides the energy required for Gla formation. In this reaction KH2 is converted into vitamin K epoxide (KO), which is recycled in two steps by the action of an enzyme called KO-reductase.
(§2) In vitro systems were used to test either the γ-glutamylcarboxylase or KO-reductase. Salt-washed microsomes were prepared from the livers of normal cows and from normal and vitamin K-deficient rats of the Lewis strain.
(§3) Inhibition curves were prepared at a wide concentration range of prenylquinones (UQ-9, UQ-10, and PQ-9) using the cofactor vitamin K either in its quinol, its quinone, or in its epoxide form. From these curves the inhibitor concentrations required for 50% inhibition (I-50) were calculated (dotted lines in Fig. 1) for the various carboxylating enzyme systems from the cow as well as from rats. Incubations were performed under standard conditions, the inhibitors were added after solubilization in Triton X- 114. All points in Fig. 1 represent the means of duplicate experiments. 1-50 values were calculated as shown by the dotted lines.
In general terms: Microsomes from liver hold many membrane-bound enzymes, among them those of drug oxidation.

The test system of a further assay is plasma prothrombin. Kind of assay: Effect of dietary oils on plasma prothrombin concentration (rat feeding study). Format: in vivo, Wistar rats. Particulars: animal data extrapolated to adult reference person of about 60 kg.
Assay [2] deals with Υ-glutamylcarboxylase. Kind of assay: Inhibition of carboxylase activity in salt-washed liver microsomes, bovine system. Particulars: mean of triplicate experiments with S.E.M., read-out: I-50 (µm) in bovine system. Format: biochemical.
From the text: as §1, §2, §3

For assay [3], the target named is T2, Υ-glutamylcarboxylase (Bos taurus, UniProt Q07175).
T2 sequence (Q07175 2-758): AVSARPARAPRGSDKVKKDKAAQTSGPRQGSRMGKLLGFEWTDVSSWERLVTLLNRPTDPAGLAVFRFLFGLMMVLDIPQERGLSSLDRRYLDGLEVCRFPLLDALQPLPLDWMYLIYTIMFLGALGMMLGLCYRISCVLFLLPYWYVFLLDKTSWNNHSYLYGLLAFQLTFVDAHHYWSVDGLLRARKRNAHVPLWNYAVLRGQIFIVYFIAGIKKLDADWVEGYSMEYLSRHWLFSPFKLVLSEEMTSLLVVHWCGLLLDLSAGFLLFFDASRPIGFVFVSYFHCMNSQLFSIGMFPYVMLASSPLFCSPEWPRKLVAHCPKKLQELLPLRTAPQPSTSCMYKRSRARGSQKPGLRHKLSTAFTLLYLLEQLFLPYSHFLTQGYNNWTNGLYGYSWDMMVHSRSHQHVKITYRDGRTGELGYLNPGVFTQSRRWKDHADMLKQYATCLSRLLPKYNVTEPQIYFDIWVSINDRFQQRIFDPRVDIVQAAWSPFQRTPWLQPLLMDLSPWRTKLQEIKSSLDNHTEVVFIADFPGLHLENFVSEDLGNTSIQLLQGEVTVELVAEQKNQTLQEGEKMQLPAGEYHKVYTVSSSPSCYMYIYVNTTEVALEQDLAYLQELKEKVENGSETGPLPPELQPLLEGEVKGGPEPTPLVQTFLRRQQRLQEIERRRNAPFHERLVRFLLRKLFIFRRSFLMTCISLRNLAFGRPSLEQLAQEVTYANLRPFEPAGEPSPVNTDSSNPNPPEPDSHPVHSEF
Described as above. Type of assay: biochemical. The following applies: cofactor KH2; mean of triplicate experiments with S.E.M.; read-out: I-50 (µm) in bovine system.
From the text: as §1, §2, §3

Read-outs that look alike come from different tables or passages of the source.

Turning to `COC1=C(OC)C(=O)C(CC=C(C)CCC=C(C)CCC=C(C)CCC=C(C)CCC=C(C)CCC=C(C)CCC=C(C)CCC=C(C)CCC=C(C)C)=C(C)C1=O` [UQ-9, ubiquinone-9], the IC50 came to 25 ± 6 µM at Υ-glutamylcarboxylase [1], 86 ± 12 µM on Υ-glutamylcarboxylase [2] (cofactor K), 72 ± 8 µM on Υ-glutamylcarboxylase [2] (cofactor KO) and 105 ± 14 µM at Υ-glutamylcarboxylase [3]. For the same compound, the “effective dose extrapolated to humans” value in the assay on plasma prothrombin is on record as “about 40 mg”.
Take `CC(C)=CCC/C(C)=C/CC/C(C)=C/CC/C(C)=C/CC/C(C)=C/CC/C(C)=C/CC/C(C)=C/CC/C(C)=C/CC/C(C)=C/CC1=CC(=O)C(C)=C(C)C1=O` [PQ-9, plastoquinone]: the IC50 at Υ-glutamylcarboxylase [1] came out at 39 ± 10 µM; on Υ-glutamylcarboxylase [2] (cofactor K), 59 ± 4 µM; at Υ-glutamylcarboxylase [2] (cofactor KO), 41 ± 7 µM; at Υ-glutamylcarboxylase [3], 85 ± 11 µM.
For `COC1=C(OC)C(=O)C(CC=C(C)CCC=C(C)CCC=C(C)CCC=C(C)CCC=C(C)CCC=C(C)CCC=C(C)CCC=C(C)CCC=C(C)CCC=C(C)C)=C(C)C1=O` [UQ-10, ubiquinone-10] the same measures were 36 ± 7 µM, 76 ± 5 µM, 91 ± 15 µM and 110 ± 17 µM.
